Assay results from patent US20220016102A1, “ER PROTEIN REGULATORS AND USE THEREOF” (ShanghaiTech University, priority 2018, published 2022).

Assays:
[1] = target: T1, ER protein (Homo sapiens, UniProt P03372); test: Western blotting analysis of ER protein degradation in T47D cell line; format: cell-based; set-up: western blotting detection of the level of intracellular ER protein; endogenous in cells; host or cells: T47D; settings: degradation of ER protein, T47D cells, drug treatment for 16 hours, Western blot gray values vs DMSO control; read-out: DC50 (nM)/T47Dcell line
T1 sequence (P03372 1-595): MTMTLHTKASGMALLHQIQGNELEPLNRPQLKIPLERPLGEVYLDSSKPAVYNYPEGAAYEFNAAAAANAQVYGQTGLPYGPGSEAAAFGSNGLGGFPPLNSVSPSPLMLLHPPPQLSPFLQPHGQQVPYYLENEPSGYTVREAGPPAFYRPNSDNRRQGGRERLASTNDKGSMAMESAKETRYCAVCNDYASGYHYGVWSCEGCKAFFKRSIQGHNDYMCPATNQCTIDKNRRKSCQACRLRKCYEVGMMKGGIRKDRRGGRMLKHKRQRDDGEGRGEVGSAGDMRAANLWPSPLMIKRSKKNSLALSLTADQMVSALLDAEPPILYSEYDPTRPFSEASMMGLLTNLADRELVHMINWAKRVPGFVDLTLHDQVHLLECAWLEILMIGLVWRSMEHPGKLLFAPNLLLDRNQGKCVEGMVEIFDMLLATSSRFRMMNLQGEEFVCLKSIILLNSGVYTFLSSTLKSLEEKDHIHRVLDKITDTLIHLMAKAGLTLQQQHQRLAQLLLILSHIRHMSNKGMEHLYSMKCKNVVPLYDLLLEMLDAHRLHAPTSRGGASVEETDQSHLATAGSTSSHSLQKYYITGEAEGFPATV
Description: T47D cells were cultured in an incubator with 5% CO2 at 37° C. Complete medium was RPMI1640 supplemented with 10% Foetal bovine serum (FBS), 100 U/ml Penicillin and Streptomycin, and 0.77 μg/mL recombinant human insulin. Western blotting analysis of T47D cell line: • Cells were plated in a 24-well plate at a cell seeding […] of 1.5×10^5 cells/mL, with 1 ml cell suspensions per well. • After 24 h the cells were adherent, and the cells in each well were treated with 1 μL a certain concentration of ER protein regulators of the present disclosure. […] Afterwards, the membranes were block by using the Blocking Buffer, and the antibody incubation and development were performed. (The above procedures were all based on the antibody product manual of the manufacturer) DC50 value (the drug concentration required for degrading proteins by 50%, abbreviated as DC50) reads method: comparing the gray values of the Western blotting bands for the drug treatment with the gray values of the Western blotting band for the DMSO control, and reading the drug concentration range corresponding to the gray value of the Western blotting bands for the drug treatment which is equal to half of the gray value of the Western blotting band for the DMSO control. DC50 value could also be calculated as follows: using software ImageJ to quantify the gray values of the Western blotting bands for the drug treatment, fitting the relationship curve between drug concentrations and gray values, and from the fitted curve, calculating the drug concentration corresponding to half of the gray value of the Western blotting band for the DMSO control.

[2] = target: T1, ER protein; test: Western blotting analysis of ER protein degradation in MCF-7 cell line; format: cell-based; set-up: western blotting detection of the level of intracellular ER protein; endogenous in cells; settings: MCF-7 cells, Western blot gray values vs DMSO control
Description: MCF-7 were cultured in ncubator with 5% CO2 at 37° C. Complete medium was EMEM supplemented with 10% FBS, 100 U/mL Penicillin and Streptomycin, and 0.77 μg/mL recombinant human insulin. […]
DC50 value (the drug concentration required for degrading proteins by 50%, abbreviated as DC50) reads method: comparing the gray values of the Western blotting bands for the drug treatment with the gray values of the Western blotting band for the DMSO control, and reading the drug concentration range corresponding to the gray value of the Western blotting bands for the drug treatment which is equal to half of the gray value of the Western blotting band for the DMSO control.
DC50 value could also be calculated as follows: using software ImageJ to quantify the gray values of the Western blotting bands for the drug treatment, fitting the relationship curve between drug concentrations and gray values, and from the fitted curve, calculating the drug concentration corresponding to half of the gray value of the Western blotting band for the DMSO control.

Compound | DC50 [1] [nM] | DC50 [2] [nM]
Cc1ncsc1-c1ccc(CNC(=O)[C@@H]2C[C@@H](O)CN2C(=O)[C@@H](NC(=O)CCOCCOCCOCCC(=O)NCCOc2ccc(C(=C(CCCl)c3ccccc3)c3ccc(O)cc3)cc2)C(C)(C)C)cc1 [SIAIS208018, (2S,4R)-1-((S)-2-(tert-butyl)-19-(4-(4-chloro-1-(4-hydroxyphenyl)-2-phenylbut-1-en-1-yl)phenoxy)-4,16-dioxo-7,10,13-trioxa-3,17-diazanonadecanoyl)-4-hydroxy-N-(4-(4-methylthiazol-5-yl)benzyl)pyrrolidine-2-carboxamide] | < 50 | < 50
Cc1ncsc1-c1ccc(CNC(=O)[C@@H]2C[C@@H](O)CN2C(=O)[C@@H](NC(=O)CCCC(=O)NCCOc2ccc(C(=C(CCCl)c3ccccc3)c3ccc(O)cc3)cc2)C(C)(C)C)cc1 [SIAIS208031, N1-(2-(4-(4-chloro-1-(4-hydroxyphenyl)-2-phenylbut-1-en-1-yl)phenoxy)ethyl)-N5-((S)-1-((2S,4R)-4-hydroxy-2-((4-(4-methylthiazol-5-yl)benzyl)carbamoyl)pyrrolidin-1-yl)-3,3-dimethyl-1-oxobutan-2-yl)glutaramide] | < 100 | < 100
Cc1ncsc1-c1ccc(CNC(=O)[C@@H]2C[C@@H](O)CN2C(=O)[C@@H](NC(=O)CCCCC(=O)NCCOc2ccc(C(=C(CCCl)c3ccccc3)c3ccc(O)cc3)cc2)C(C)(C)C)cc1 [SIAIS208032, N1-(2-(4-(4-chloro-1-(4-hydroxyphenyl)-2-phenylbut-1-en-1-yl)phenoxy)ethyl)-N6-((S)-1-((2S,4R)-4-hydroxy-2-((4-(4-methylthiazol-5-yl)benzyl)carbamoyl)pyrrolidin-1-yl)-3,3-dimethyl-1-oxobutan-2-yl)adipamide] | < 50 | < 100
Cc1ncsc1-c1ccc(CNC(=O)[C@@H]2C[C@@H](O)CN2C(=O)[C@@H](NC(=O)CCCCCCCCCC(=O)NCCOc2ccc(C(=C(CCCl)c3ccccc3)c3ccc(O)cc3)cc2)C(C)(C)C)cc1 [SIAIS208037, N1-(2-(4-(4-chloro-1-(4-hydroxyphenyl)-2-phenylbut-1-en-1-yl)phenoxy)ethyl)-N11-((S)-1-((2S,4R)-4-hydroxy-2-((4-(4-methylthiazol-5-yl)benzyl)carbamoyl)pyrrolidin-1-yl)-3,3-dimethyl-1-oxobutan-2-yl)undecanediamide] | < 10 | < 10
Cc1ncsc1-c1ccc(CNC(=O)[C@@H]2C[C@@H](O)CN2C(=O)[C@@H](NC(=O)CCCCCCCCCCCCC(=O)NCCOc2ccc(C(=C(CCCl)c3ccccc3)c3ccc(O)cc3)cc2)C(C)(C)C)cc1 [SIAIS208038, N1-(2-(4-(4-chloro-1-(4-hydroxyphenyl)-2-phenylbut-1-en-1-yl)phenoxy)ethyl)-N14-((S)-1-((2S,4R)-4-hydroxy-2-((4-(4-methylthiazol-5-yl)benzyl)carbamoyl)pyrrolidin-1-yl)-3,3-dimethyl-1-oxobutan-2-yl)tetradecanediamide] | < 50 | < 10
Cc1ncsc1-c1ccc(CNC(=O)[C@@H]2C[C@@H](O)CN2C(=O)[C@@H](NC(=O)CCCCCCCCCCCCCCC(=O)NCCOc2ccc(C(=C(CCCl)c3ccccc3)c3ccc(O)cc3)cc2)C(C)(C)C)cc1 [SIAIS208039, N1-(2-(4-(4-chloro-1-(4-hydroxyphenyl)-2-phenylbut-1-en-1-yl)phenoxy)ethyl)-N16-((S)-1-((2S,4R)-4-hydroxy-2-((4-(4-methylthiazol-5-yl)benzyl)carbamoyl)pyrrolidin-1-yl)-3,3-dimethyl-1-oxobutan-2-yl)hexadecanediamide] | < 50 | < 100
Cc1ncsc1-c1ccc(CNC(=O)[C@@H]2C[C@@H](O)CN2C(=O)[C@@H](NC(=O)COCCOCC(=O)NCCOc2ccc(C(=C(CCCl)c3ccccc3)c3ccc(O)cc3)cc2)C(C)(C)C)cc1 [SIAIS208041, (2S,4R)-1-((S)-2-(tert-butyl)-14-(4-(4-chloro-1-(4-hydroxyphenyl)-2-phenylbut-1-en-1-yl)phenoxy)-4,11-dioxo-6,9-dioxa-3,12-diazatetradecanoyl)-4-hydroxy-N-(4-(4-methylthiazol-5-yl)benzyl)pyrrolidine-2-carboxamide] | < 10 | 10

Other lines, results leading:

DC50 [1] [nM] | DC50 [2] [nM] | Compound
< 10 | < 50 | Cc1ncsc1-c1ccc(CNC(=O)[C@@H]2C[C@@H](O)CN2C(=O)[C@@H](NC(=O)CCOCCOCCOCCOCCC(=O)NCCOc2ccc(C(=C(CCCl)c3ccccc3)c3ccc(O)cc3)cc2)C(C)(C)C)cc1 [SIAIS208019, N1-(2-(4-(4-chloro-1-(4-hydroxyphenyl)-2-phenylbut-1-en-1-yl)phenoxy)ethyl)-N16-((S)-1-((2S,4R)-4-hydroxy-2-((4-(4-methylthiazol-5-yl)benzyl)carbamoyl)pyrrolidin-1-yl)-3,3-dimethyl-1-oxobutan-2-yl)-4,7,10,13-tetraoxahexadecanediamide]
< 10 | < 50 | Cc1ncsc1-c1ccc(CNC(=O)[C@@H]2C[C@@H](O)CN2C(=O)[C@@H](NC(=O)CCC(=O)NCCOc2ccc(C(=C(CCCl)c3ccccc3)c3ccc(O)cc3)cc2)C(C)(C)C)cc1 [SIAIS208020, N1-(2-(4-(4-chloro-1-(4-hydroxyphenyl)-2-phenylbut-1-en-1-yl)phenoxy)ethyl)-N4-((S)-1-((2S,4R)-4-hydroxy-2-((4-(4-methylthiazol-5-yl)benzyl)carbamoyl)pyrrolidin-1-yl)-3,3-dimethyl-1-oxobutan-2-yl)succinamide]
< 10 | < 10 | Cc1ncsc1-c1ccc(CNC(=O)[C@@H]2C[C@@H](O)CN2C(=O)[C@@H](NC(=O)CCCCCC(=O)NCCOc2ccc(C(=C(CCCl)c3ccccc3)c3ccc(O)cc3)cc2)C(C)(C)C)cc1 [SIAIS208033, N1-(2-(4-(4-chloro-1-(4-hydroxyphenyl)-2-phenylbut-1-en-1-yl)phenoxy)ethyl)-N7-((S)-1-((2S,4R)-4-hydroxy-2-((4-(4-methylthiazol-5-yl)benzyl)carbamoyl)pyrrolidin-1-yl)-3,3-dimethyl-1-oxobutan-2-yl)heptanediamide]
< 10 | < 10 | Cc1ncsc1-c1ccc(CNC(=O)[C@@H]2C[C@@H](O)CN2C(=O)[C@@H](NC(=O)CCCCCCC(=O)NCCOc2ccc(C(=C(CCCl)c3ccccc3)c3ccc(O)cc3)cc2)C(C)(C)C)cc1 [SIAIS208034, N1-(2-(4-(4-chloro-1-(4-hydroxyphenyl)-2-phenylbut-1-en-1-yl)phenoxy)ethyl)-N8-((S)-1-((2S,4R)-4-hydroxy-2-((4-(4-methylthiazol-5-yl)benzyl)carbamoyl)pyrrolidin-1-yl)-3,3-dimethyl-1-oxobutan-2-yl)octanediamide]
< 10 | < 10 | Cc1ncsc1-c1ccc(CNC(=O)[C@@H]2C[C@@H](O)CN2C(=O)[C@@H](NC(=O)CCCCCCCCC(=O)NCCOc2ccc(/C(=C(/CCCl)c3ccccc3)c3ccc(O)cc3)cc2)C(C)(C)C)cc1 [SIAIS208036, N1-(2-(4-((Z)-4-chloro-1-(4-hydroxyphenyl)-2-phenylbut-1-en-1-yl)phenoxy)ethyl)-N10-((S)-1-((2S,4R)-4-hydroxy-2-((4-(4-methylthiazol-5-yl)benzyl)carbamoyl)pyrrolidin-1-yl)-3,3-dimethyl-1-oxobutan-2-yl)decanediamide]
